Results reported in the supplement of paper PMC11061612.

Assays:
[1] = test system: NCI-H2023 (Non-Small Cell Lung Carcinoma); assay: Bliss excess, mean over the matrix (fraction); higher = more synergy
Outline: (§1)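 After 24 hours at 37°C and 5% CO2 in 1536-well plates, cells in DMEM/F12 or RPMI plus 10% FBS received two-drug dose matrices for 72 hours. Viability came from CellTiter-Glo 2.0 luminescence and was scaled as inhibition, anchored at 0 by vehicle wells and at 1 by blank wells. Combination Emax is taken as the second-highest inhibition in the matrix, and Bliss excess as the observed combination effect less EA + EB − EA·EB, with EA and EB the single-agent effects.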

[2] = test system: NCI-H1435 (Non-Small Cell Lung Carcinoma); assay: as above
Outline: as §1

SK-N-DZ (Neuroblastoma) = assay: as above
Outline: as §1

[3] = test system: NCI-H1648 (Lung Adenocarcinoma); assay: as above
Outline: as §1

[4] = test system: SBC-3 (Small Cell Lung Carcinoma); assay: as above
Outline: as §1

[5] = test system: RPMI-8402 (T-Lymphoblastic Leukemia); assay: as above
Outline: as §1

SK-MEL-24 (Melanoma) [6] = assay: as above
Outline: as §1

[7] = test system: Daudi (Burkitt's Lymphoma); assay: as above
Outline: as §1

[8] = test system: OVKATE (Ovarian Carcinoma); assay: as above
Outline: as §1

C32 (Melanoma) = assay: as above
Outline: as §1

[9] = test system: NCI-H1944 (Lung Adenocarcinoma); assay: as above
Outline: as §1

[10] = test system: RS4-11 (B-Lymphoblastic Leukemia); assay: as above
Outline: as §1

HT-144 (Melanoma) = assay: combination Emax (second highest fraction inhibited in the dose matrix, 72 h); higher = more inhibition; extreme values may be limits of the assay
Outline: as §1

[11] = test system: NTERA-2-cl-D1 (Other Solid Carcinomas); assay: as above
Outline: as §1

SK-MEL-24 (Melanoma) [12] = assay: as above
Outline: as §1

[13] = test system: C2BBe1 (Colorectal Carcinoma); assay: as above
Outline: as §1

[14] = test system: SW1463 (Colorectal Carcinoma); assay: as above
Outline: as §1

[15] = test system: OVKATE (Ovarian Carcinoma); assay: as above
Outline: as §1

[16] = test system: JJN-3 (Plasma Cell Myeloma); assay: as above
Outline: as §1

[17] = test system: JURL-MK1 (Chronic Myelogenous Leukemia); assay: as above
Outline: as §1
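Throughout, for Bliss excess, mean over the matrix: after 72 h of two-drug dosing.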

Structure (SMILES) | Bliss excess [1] | Bliss excess [2] | Bliss excess (SK-N-DZ (Neuroblastoma)) | Bliss excess [3] | Bliss excess [4] | Bliss excess [5] | Bliss excess (SK-MEL-24 (Melanoma) [6]) | Bliss excess [7] | Bliss excess [8] | Bliss excess (C32 (Melanoma)) | Bliss excess [9] | Bliss excess [10] | combination Emax (HT-144 (Melanoma)) | combination Emax [11] | combination Emax (SK-MEL-24 (Melanoma) [12]) | combination Emax [13] | combination Emax [14] | combination Emax [15] | combination Emax [16] | combination Emax [17]
Cc1c2c(nn1C)CSCc1cc(n(C)n1)CSc1cc(c3ccccc3c1)OCCCc1c(C(=O)O)n(C)c3c-2c(Cl)ccc13 [AZD5991] + CC1(C)CCC(CN2CCN(c3ccc(C(=O)NS(=O)(=O)c4ccc(NCC5CCOCC5)c([N+](=O)[O-])c4)c(Oc4cnc5[nH]ccc5c4)c3)CC2)=C(c2ccc(Cl)cc2)C1 [Venetoclax] (first compound max 1 µM, 7x7, partner max 1 µM) | -0.0387 | 0.0174 | 0.0428 | -0.0482 | 0.0727 | 0.035 | -0.0426 | 0.0382 | -0.0527 | 0.0147 | 0.0091 | 0.0963 | 0.955 | 0.916 | 0.336 | 0.23 | 0.131 | 0.147 | 1 | 0.695
Cc1c2c(nn1C)CSCc1cc(n(C)n1)CSc1cc(c3ccccc3c1)OCCCc1c(C(=O)O)n(C)c3c-2c(Cl)ccc13 [AZD5991] + CCN(CCO)CCCOc1ccc2c(Nc3cc(CC(=O)Nc4cccc(F)c4)[nH]n3)ncnc2c1 [AZD2811] (first compound max 1 µM, 7x7, partner max 1 µM) | 0.0307 | 0.0411 | 0.043 | 0.0051 | 0.0082 | 0.0412 | 0.0258 | 0.263 | -0.09 | 0.05 | 0.0457 | -0.0061 | 0.927 | 0.821 | 0.362 | 0.277 | 0.268 | 0.253 | 1 | 0.901
Cc1c2c(nn1C)CSCc1cc(n(C)n1)CSc1cc(c3ccccc3c1)OCCCc1c(C(=O)O)n(C)c3c-2c(Cl)ccc13 [AZD5991] + CN(C)CCCOc1ccc(-c2ccc3ncc4c(c3c2)n(C2CCOCC2)c(=O)n4C)cn1 [AZD0156] (first compound max 1 µM, 7x7, partner max 1 µM) | -0.0069 | 0.0719 | 0.0063 | -0.0433 | -0.0128 | -0.0536 | -0.0328 | 0.0362 | -0.0708 | -0.0076 | 0.0049 | -0.0177 | 0.87 | 0.589 | 0.232 | 0.288 | 0.204 | 0.247 | 1 | 0.734
Cc1c2c(nn1C)CSCc1cc(n(C)n1)CSc1cc(c3ccccc3c1)OCCCc1c(C(=O)O)n(C)c3c-2c(Cl)ccc13 [AZD5991] + C[C@@H](Nc1cc(F)cc(F)c1)c1cc(C(=O)N(C)C)cc2c(=O)cc(N3CCOCC3)oc12 [AZD8186] (first compound max 1 µM, 7x7, partner max 3 µM) | -0.0253 | 0.0131 | -0.0328 | -0.0508 | -0.0341 | 0.0272 | -0.0081 | 0.0234 | -0.0298 | 0.0051 | -0.0141 | -0.0092 | 0.901 | 0.682 | 0.388 | 0.335 | 0.188 | 0.353 | 1 | 0.629
Cc1c2c(nn1C)CSCc1cc(n(C)n1)CSc1cc(c3ccccc3c1)OCCCc1c(C(=O)O)n(C)c3c-2c(Cl)ccc13 [AZD5991] + Cn1cnc2c(F)c(Nc3ccc(Br)cc3Cl)c(C(=O)NOCCO)cc21 [Selumetinib] (first compound max 1 µM, 7x7, partner max 3 µM) | 0.0293 | 0.0727 | 0.018 | 0.0396 | -0.0674 | 0.0125 | 0.0006 | 0.0545 | -0.0724 | 0.0678 | 0.027 | 0.0021 | 1 | 0.562 | 0.705 | 0.425 | 0.547 | 0.265 | 1 | 0.952
C[C@@H]1COCCN1c1cc(C2([S@](C)(=N)=O)CC2)nc(-c2ccnc3[nH]ccc23)n1 [AZD6738] + O=C(c1cc(Cc2n[nH]c(=O)c3ccccc23)ccc1F)N1CCN(C(=O)C2CC2)CC1 [Olaparib] (first compound max 10 µM, 7x7, partner max 10 µM) | 0.0867 | 0.0203 | -0.0019 | 0.0086 | -0.0328 | 0.013 | -0.0105 | -0.0239 | -0.0115 | 0.0019 | 0.0194 | -0.0365 | 0.859 | 0.894 | 0.551 | 0.331 | 0.951 | 0.305 | 0.584 | 0.996
NC1(C(=O)N[C@@H](CCO)c2ccc(Cl)cc2)CCN(c2ncnc3[nH]ccc23)CC1 [Capivasertib] + CC(=O)c1c(C)c2cnc(Nc3ccc(N4CCNCC4)cn3)nc2n(C2CCCC2)c1=O [Palbociclib] (first compound max 10 µM, 7x7, partner max 10 µM) | 0.0276 | -0.0245 | 0.0628 | -0.0039 | 0.0265 | -0.0296 | -0.0514 | 0.0065 | -0.018 | 0.0018 | 0.02 | -0.0425 | 0.809 | 0.294 | 0.654 | 0.314 | 0.502 | 0.265 | 0.298 | 1
NC1(C(=O)N[C@@H](CCO)c2ccc(Cl)cc2)CCN(c2ncnc3[nH]ccc23)CC1 [Capivasertib] + CC(C)n1c(=O)n(C)c2cnc3cc(F)c(-c4ccc(OCCCN5CCCCC5)nc4)cc3c21 [AZD1390] (first compound max 10 µM, 7x7, partner max 0.3 µM) | -0.0587 | -0.0336 | -0.0605 | -0.0077 | -0.0144 | -0.0456 | -0.0251 | -0.0326 | -0.0549 | -0.0343 | -0.0893 | 0.0078 | 0.606 | 0.312 | 0.541 | 0.32 | 0.237 | 0.247 | 0.28 | 0.366
NC1(C(=O)N[C@@H](CCO)c2ccc(Cl)cc2)CCN(c2ncnc3[nH]ccc23)CC1 [Capivasertib] + CCN(CCO)CCCOc1ccc2c(Nc3cc(CC(=O)Nc4cccc(F)c4)[nH]n3)ncnc2c1 [AZD2811] (first compound max 10 µM, 7x7, partner max 1 µM) | -0.0087 | -0.0384 | 0.0051 | -0.0419 | 0.059 | -0.0421 | -0.0891 | 0.103 | -0.0367 | 0.0477 | 0.101 | -0.0504 | 0.764 | 0.481 | 0.626 | 0.301 | 0.319 | 0.309 | 0.376 | 0.596
NC1(C(=O)N[C@@H](CCO)c2ccc(Cl)cc2)CCN(c2ncnc3[nH]ccc23)CC1 [Capivasertib] + COc1nnc2ccc(N3CCC(c4ccc(OCCN5CCN(C)C(=O)[C@H]5C)cc4)CC3)nn12 [AZD5153] (first compound max 10 µM, 7x7, partner max 1 µM) | 0.0221 | -0.025 | 0.0675 | -0.0694 | -0.0135 | -0.0484 | 0.0073 | 0.045 | -0.0368 | 0.0434 | -0.0124 | 0.089 | 0.855 | 0.564 | 0.885 | 0.405 | 0.521 | 0.284 | 0.921 | 0.993
NC1(C(=O)N[C@@H](CCO)c2ccc(Cl)cc2)CCN(c2ncnc3[nH]ccc23)CC1 [Capivasertib] + C[C@@H]1COCCN1C2=NC(=NC(=C2)C3(CC3)[S@](=N)(=O)C)C4=C5C=CNC5=NC=C4 [AZD6738] (first compound max 10 µM, 7x7, partner max 10 µM) | 0.0282 | 0.0077 | 0.0045 | -0.0878 | -0.0479 | -0.0768 | -0.027 | 0.0167 | -0.0516 | -0.0288 | -0.0268 | -0.0276 | 0.88 | 0.477 | 0.688 | 0.445 | 0.42 | 0.265 | 0.603 | 1
NC1(C(=O)N[C@@H](CCO)c2ccc(Cl)cc2)CCN(c2ncnc3[nH]ccc23)CC1 [Capivasertib] + Cn1cnc2c(F)c(Nc3ccc(Br)cc3Cl)c(C(=O)NOCCO)cc21 [Selumetinib] (first compound max 10 µM, 7x7, partner max 10 µM) | -0.0583 | 0.0234 | 0.0254 | 0.0807 | -0.0353 | -0.037 | -0.0145 | -0.0138 | 0.0215 | 0.0905 | 0.0543 | -0.016 | 0.985 | 0.321 | 0.856 | 0.569 | 0.65 | 0.385 | 0.358 | 1
COc1cccc2c1C(=O)c1c(O)c3c(c(O)c1C2=O)C[C@@](O)(C(=O)CO)C[C@@H]3O[C@H]1C[C@H](N)[C@H](O)[C@H](C)O1 [Doxorubicin] + Cc1cc2ncnn2cc1Nc1ncc2c(n1)n(C1CCOCC1)c(=O)n2C [AZD7648] (first compound max 1 µM, 7x7, partner max 10 µM) | 0.0476 | 0.0002 | 0.112 | 0.0456 | 0.0553 | 0.0782 | 0.0399 | 0.0985 | -0.0594 | 0.044 | 0.0739 | 0.171 | 0.583 | 1 | 0.725 | 0.242 | 0.196 | 0.282 | 0.735 | 1
CS(=O)(=O)CCNCc1ccc(-c2ccc3ncnc(Nc4ccc(OCc5cccc(F)c5)c(Cl)c4)c3c2)o1 [Lapatinib] + C[C@@H](Oc1cc(-c2cnn(C3CCNCC3)c2)cnc1N)c1c(Cl)ccc(F)c1Cl [Crizotinib] (first compound max 10 µM, 7x7, partner max 10 µM) | -0.026 | 0.061 | -0.0702 | 0.0036 | -0.0761 | -0.0375 | -0.118 | -0.0179 | -0.0448 | -0.0067 | 0.015 | -0.0183 | 0.998 | 0.957 | 0.967 | 0.745 | 0.802 | 0.391 | 0.902 | 1
